Blank lines part the entries; values can stand above or below the compound they belong to.
Tests used:
[1] = test system: C2C12 murine skeletal muscle myoblasts; assay: diameter of C2C12 myotubes (anti-desmin labelling); assay type: cell-based; conditions: for mean diameter size of myotubes: C2C12 myotubes, urolithin B 15 μM 24 h, TNF-alpha 10 ng/mL 4 h, leucine 5 mM
Procedure: The inventors selected C2C12 murine skeletal muscle myoblasts for measuring the effect of polyphenols on muscle metabolism, especially when submitted to inflammatory stress (e.g. upon TNF-alpha exposure). In these conditions, anabolism is blocked.
C2C12 myoblasts were differentiated for 4 days using 1% horse serum and 1% penicillin/streptomycin. The cells were thereafter grown for 24 h either with the same differentiation medium or with the differentiation medium supplemented with 15 μM urolithin B (conditions 5-8 of FIGS. 2-4 and of Table 1). Then the cells were grown either with the same differentiation medium or in the differentiation medium supplemented with 10 ng/mL TNF-alpha for 4 h (conditions 3-4 and 7-8 of FIGS. 2-4 and of Table 1). Thereafter, the cells were grown either with the same differentiation medium or in the differentiation medium supplemented with 5 mM leucine (conditions 2, 4, 6 and 8 of FIGS. 2-4 and of Table 1). The myotubes were labelled using anti-desmin antibodies, and nuclei labelling by Hoechst staining. Urolithin B consistently stimulates the diameter of myotubes.

mTOR = mTOR phosphorylation; assay type: cell-based
Text: The inventors then have measured mTOR phosphorylation again to reflect protein synthesis and have observed a marginal leucine-induced phosphorylation and a strong urolithin B-induced phosphorylation.

P70S6k = P70S6k phosphorylation; assay type: cell-based
androgen receptor = androgen receptor agonism (concluded from bicalutamide blockade); assay type: cell-based
Text: Finally, the inventors have measured the effect of rapamycin, on another mTOR inhibitor and of the anti-androgen bicalutamide (FIGS. 5-6 show the effect on the size of the muscular fibres) on the urolithin B-induced effects (including on the phosphorylation on mTOR, of AMPK, . . . ) and conclude that urolithin B acts upon binding and activating the androgen receptor, then by releasing the AMPK-inhibition on mTOR, increases protein synthesis in muscle cells, then the diameter of muscle fibres.

[2] = test system: breast and on prostate cancer cell lines; conditions: cited from earlier work
C2C12 myoblasts = assay: toxicity of urolithin B addition; assay type: cell-based, murine; conditions: concentrations of up to 40 μM
Procedure: The inventors have firstly measured if the addition of urolithin B presents some toxicity, but no toxicity was measured for concentrations of up to 40 μM.

Akt = Akt phosphorylation; assay type: cell-based
Text: (§1) The inventors then have measured Akt and PRAS40 phosphorylation still to analyse possible metabolism pathways. However, besides a tendency of synergy between the leucine and urolithin B addition, no major difference in phosphorylation patterns were observed.

PRAS40 = PRAS40 phosphorylation; assay type: cell-based
Text: as §1

AMPK = AMPK phosphorylation; assay type: cell-based
denervated muscle = assay: weight loss of denervated muscle, intravenous; assay type: in vivo; conditions: mammal
[3] = compared with urolithins A, C and D and whole polyphenol extract; cited from earlier work
[4] = human patients fed with pomegranate extract; compared with urolithin A; cited from earlier work

Compound: CC(C)C[C@H](N)C(=O)O [Leucine, leucine]
mean diameter size of myotubes [1]: 25.5 | mTOR phosphorylation (mTOR): marginal

androgen-receptor agonist (androgen receptor): not
Compound: O=c1oc2cc(O)ccc2c2ccc(O)cc12 [urolithin A, reference compound]
size of myotubes ([1]; up to 10 μM urolithin A, vs control): does not increase | induction of P70S6k phosphorylation (P70S6k): almost no induction | anti cancer activity [2]: direct anti cancer activity

Compound: O=c1oc2cc(O)ccc2c2ccccc12 [urolithin B]
mean diameter size of myotubes [1]: 32.6 | size of myotubes ([1]; urolithin B at 15 μM): significantly increased | toxicity (C2C12 myoblasts): no toxicity | mTOR phosphorylation (mTOR): strong | Akt phosphorylation (Akt): does not induce | PRAS40 phosphorylation (PRAS40): does not induce | AMPK phosphorylation (AMPK): strong reduction | androgen-receptor agonist (androgen receptor): agonist | weight loss of denervated muscle (denervated muscle): prevents | antioxidant and anti-inflammatory properties [3]: much weaker | amount in the blood [4]: much lower | anti cancer activity [2]: direct anti cancer activity

Compound: TNFa
mean diameter size of myotubes [1]: 16.7
